PubChem BioAssay (NCI)
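Protocol summary: plate cells (96-well), add compound at 5 concentrations, incubate 48 h, interpolate endpoints linearly. At the GI50, growth is halved. Definition used: TGI = concentration required for complete inhibition of growth.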

How the values were obtained:
Assay in all cases: NCI-60 cell line screen, 48 h
ACHN renal = tested on: ACHN renal
CCRF-CEM leukemia = tested on: CCRF-CEM leukemia
HCT-15 colon = tested on: HCT-15 colon
HOP-92 NSCLC = tested on: HOP-92 NSCLC
M14 melanoma = tested on: M14 melanoma
NCI-H226 lung = tested on: NCI-H226 lung
OVCAR-4 ovarian = tested on: OVCAR-4 ovarian
SR leukemia = tested on: SR leukemia
UACC-257 melanoma = tested on: UACC-257 melanoma
SK-MEL-28 melanoma = tested on: SK-MEL-28 melanoma

| Structure (SMILES) | GI50 (ACHN renal) | TGI (ACHN renal) | GI50 (CCRF-CEM leukemia) | TGI (CCRF-CEM leukemia) | GI50 (HCT-15 colon) | TGI (HCT-15 colon) | GI50 (HOP-92 NSCLC) | TGI (HOP-92 NSCLC) | GI50 (M14 melanoma) | TGI (M14 melanoma) | GI50 (NCI-H226 lung) | TGI (NCI-H226 lung) | GI50 (OVCAR-4 ovarian) | TGI (OVCAR-4 ovarian) | GI50 (SR leukemia) | TGI (SR leukemia) | GI50 (UACC-257 melanoma) | TGI (UACC-257 melanoma) | GI50 (SK-MEL-28 melanoma) | TGI (SK-MEL-28 melanoma) |
| --- | --- | --- | --- | --- | --- | --- | --- | --- | --- | --- | --- | --- | --- | --- | --- | --- | --- | --- | --- | --- |
| COc1ccc(NC(=O)c2sc3nc(C)c(C(=O)/C=C/c4cccc(OC)c4)cc3c2N)cc1 | 1.08 µM | 2.49 µM | 1.21 µM | > 50 µM | 1.01 µM | 2.42 µM | 1.51 µM | 9.99 µM | 1.78 µM | 18.7 µM | 1.89 µM | 10.3 µM | 4.01 µM | 17.8 µM | 1.24 µM | 5.92 µM | 1.74 µM | 11.7 µM | – | – |
| COc1ccc(/C(C#N)=C/c2cc(OC)c(OC)c(OC)c2)cc1 | 23.5 µM | > 100 µM | 22.1 µM | 78.6 µM | 7.96 µM | > 100 µM | – | – | 19.3 µM | > 100 µM | 29.1 µM | > 100 µM | 38.4 µM | > 100 µM | 3.36 µM | 41.5 µM | 31 µM | > 100 µM | 27.4 µM | > 100 µM |
| O=c1oc2cc(OC/C(=N/O)c3ccc(F)cc3)ccc2c2ccccc12 | 20.4 µM | 41.6 µM | 23 µM | > 100 µM | 20.7 µM | 42.4 µM | 23.6 µM | 52.8 µM | 19.2 µM | 33.7 µM | 22.3 µM | 40.6 µM | – | – | 26.6 µM | 69.2 µM | 22.9 µM | 39.4 µM | 20 µM | 37.2 µM |
| O=C(CI)Nc1ccc(O)c2ccccc12 | 1.49 µM | 2.84 µM | – | – | 0.817 µM | 2.48 µM | 1.61 µM | 3.39 µM | 1.06 µM | 2.63 µM | 1.67 µM | 5.61 µM | 0.575 µM | 1.23 µM | 0.726 µM | 3.75 µM | 1.54 µM | 3.14 µM | 1.78 µM | 3.74 µM |
| COc1ccc(C(=O)CC2=Nc3nnc(CCCCCCCc4nnc5n4C(=O)C(CC(=O)c4ccc(OC)cc4)=N5)n3C2=O)cc1 | – | > 100 µM | – | > 100 µM | – | > 100 µM | – | > 100 µM | – | > 100 µM | – | > 100 µM | – | – | – | > 100 µM | – | > 100 µM | – | > 100 µM |
| O=C1CNC(=O)c2[nH]cnc2N1 | – | > 100 µM | – | > 100 µM | – | > 100 µM | – | – | – | > 100 µM | – | > 100 µM | – | > 100 µM | – | > 100 µM | – | – | – | > 100 µM |
| COc1ccc2c(c1)NC1(O)c3ccccc3C(=O)C21O (stereo not drawn) | – | > 100 µM | – | > 100 µM | – | – | – | > 100 µM | – | > 100 µM | – | > 100 µM | – | – | – | > 100 µM | – | > 100 µM | – | > 100 µM |
| COC(=O)C1CC(OC(C)=O)C=C2C(=O)CCC21 (stereo not drawn) | – | 46.3 µM | – | 34.4 µM | – | 30.9 µM | – | – | – | 50.2 µM | – | > 100 µM | – | 45.1 µM | – | 45.4 µM | – | 37 µM | – | 33.8 µM |
| CC(C)(C)N/N=C(\C(=O)Nc1nc(=S)[nH][nH]1)C1C(=O)Nc2ccccc2S1=O (stereo not drawn) | – | > 100 µM | – | > 100 µM | – | > 100 µM | – | – | – | > 100 µM | – | > 100 µM | – | > 100 µM | – | > 100 µM | – | > 100 µM | – | > 100 µM |
| NC(=O)c1cccc(OCC(O)CO)c1 (stereo not drawn) | – | > 100 µM | – | > 100 µM | – | > 100 µM | – | – | – | > 100 µM | – | > 100 µM | – | > 100 µM | – | > 100 µM | – | > 100 µM | – | > 100 µM |
| Cc1cc(C)c(C(=O)O)c(SSc2cc(C)cc(C)c2C(=O)O)c1 | – | > 100 µM | – | > 100 µM | – | – | – | > 100 µM | – | – | – | > 100 µM | – | > 100 µM | – | > 100 µM | – | > 100 µM | – | > 100 µM |
| ClCc1ccccc1Cn1cnc2c(Cl)ncnc21 | 2.7 µM | 6.1 µM | 1.28 µM | 3.24 µM | 2.07 µM | 4.71 µM | 1.49 µM | 4.27 µM | 1.94 µM | 3.74 µM | 4.59 µM | 12.5 µM | 3.39 µM | 12.2 µM | – | – | 10.7 µM | 26.6 µM | 2.31 µM | 5.48 µM |
| C=CCC1(C(=O)OC(C)(C)C)C(OC)=C(C(=O)OC(C)(C)C)C2C1C(C(=O)OC(C)(C)C)=C(OC)C2(CC=C)C(=O)OC(C)(C)C (stereo not drawn) | – | > 100 µM | – | > 100 µM | – | > 100 µM | – | > 100 µM | – | > 100 µM | – | > 100 µM | – | – | – | > 100 µM | – | > 100 µM | – | > 100 µM |
| O=C(C#Cc1ccccc1)C1=Cc2ccccc2OC1 | – | 5.26 µM | – | 0.528 µM | – | 6.38 µM | – | – | – | 8.21 µM | – | 8.36 µM | – | 8.9 µM | – | > 100 µM | – | 8.23 µM | – | > 65.7 µM |
| C=C1C(=O)O[C@H]2[C@H]1CC/C(COC(=O)OC/C1=C/CC[C@@]3(C)O[C@H]3[C@H]3OC(=O)[C@@H](CN(C)C)[C@@H]3CC1)=C\CC[C@@]1(C)O[C@@H]21 | 0.457 µM | 1.69 µM | 0.247 µM | 0.733 µM | 1.04 µM | 2.53 µM | 0.497 µM | 1.98 µM | 1.54 µM | 3.35 µM | 2.65 µM | 10 µM | 1.42 µM | 3.1 µM | – | – | 1.63 µM | 4.11 µM | 1.57 µM | 4.23 µM |
| O=C1C(=O)c2ccccc2C(O)=C1CCCc1ccc(C2CCCCC2)cc1 | 5.15 µM | > 100 µM | – | – | 3 µM | 24.6 µM | 1.71 µM | 24 µM | 5.93 µM | 22.4 µM | 5.42 µM | 27.6 µM | 3.23 µM | > 100 µM | 2.44 µM | 31 µM | 6.5 µM | > 100 µM | 8.54 µM | 27.2 µM |
| CCOc1ccc(NCC2CC/C(=C\c3ccccc3OC)C2=O)cc1 (stereo not drawn) | – | 27.8 µM | – | 7.22 µM | – | 7.82 µM | – | 34 µM | – | 12.1 µM | – | 34.1 µM | – | 12.8 µM | – | – | – | 20 µM | – | 24.1 µM |
